Experimental findings from patent EP2266530A1, “Oxazolidinones for cosmetic cutaneous use” (Laboratoires Expanscience, priority 2002, dated 2004) are described below.

One experiment has as its system cellules dendritiques. Description: FITC-induced migration of dendritic cells from ear skin to draining lymph nodes in mice (flow cytometry). Format: in vivo, souris. The source says:
Le FITC (Fluorescéine isothiocyanate, Sigma, St. Louis, MO) a été dilué extemporanément dans un mélange acétone : dibutylphthalate (1:1).
L'oxazolidinone B et le LU105 (LU 105 est un inhibiteur de MMPs, correspondant à un extrait peptidique de lupin blanc commercialisé par la Société Expanscience sous le nom de marque Actimp 193®) ont été fournis par les "Laboratoires Expanscience", et formulés seuls ou en association dans un véhicule inerte compatible avec une application topique, tel que décrit à l'exemple 1 ci-dessus [oxazolidinone B (0,5%) ± LU105 (2%)]. Les différentes formulations ont été appliquées sur les oreilles de souris deux fois par jour pendant 4 jours consécutifs. Trois heures après la dernière application, 1,5% de FITC sont appliqués sur les deux oreilles (l'une traitée et l'autre non traitée (Contrôle)).
L'effet des deux molécules a été évalué in vivo chez la souris. La peau des deux oreilles est badigeonnée avec 1,5% FITC (2X5 µl). 24 h après, les souris sont sacrifiées et une suspension cellulaire est préparée à partir des ganglions auriculaires et cervicaux (ganglions drainants, ci-après dénommés GL) ou à partir des ganglions popliteaux (ganglions non drainants, contrôle négatif). Les tissus ont été découpés et les cellules sont séparées par filtration (filtre […], Falcon; Becton Dickinson), puis lavés. […]
A general note: Flow cytometry measures light scatter and fluorescence of single cells or particles in a stream.

Another experiment concerns cellules de Langerhans. Description: Migration of freshly isolated, DNSB-sensitised Langerhans cells through Matrigel in a two-compartment culture chamber. As to conditions: for inhibition de la migration des CL induite par le DNSB (result in words): compound 1 µM.

Protocol for cellules de Langerhans: Des suspensions de cellules épidermiques ont été obtenues par traitement enzymatique (0,05% trypsine, pendant 18h à +4°C) de fragments de peau humaine normale issus de chirurgie plastique. Les suspensions obtenues contiennent en moyenne 2 à 4% de CL. L'obtention de suspensions contenant en moyenne 70% de CL est basée sur le principe de la centrifugation sur gradient de densité (Lymphoprep™) et élimination des kératinocytes.
Le milieu de base choisi pour l'ensemble de l'étude a été le RPMI 1640 (Gibco BRL, France).
On a utilisé comme agent sensibilisateur le DNSB (Sigma Aldrich), forme soluble du DNCB (dinitro-chloro-benzène), solubilisé en RPMI-BSA et utilisé à la concentration de 50 µM.
Un système de chambre de culture à deux compartiments (Falcon, Becton Dickinson, France) a été utilisé. Le compartiment supérieur est séparé du compartiment inférieur par une membrane de porosité 8 µm, sur laquelle sont déposées 50 µg/cm^2 de Matrigel. La membrane est alors recouverte de protéines formant un film équivalent à une membrane basale (laminine, collagène IV, nidogène, entactine, héparane sulfate protéoglycanes). Les cellules reprises dans le milieu RPMI-BSA seul ou en présence des différents produits sont déposées dans le compartiment supérieur. Dans le compartiment inférieur, est ajouté du surnageant de culture de fibroblastes humains normaux. Après 18h d'incubation à 37°C, le nombre de cellules vivantes ayant traversé le Matrigel et se trouvant dans le compartiment inférieur est compté sous microscope (les CL sont facilement identifiables par leur forme dendritique). Chaque essai est réalisé en triplicate.
Dans l'expression des résultats, la capacité migratoire des CL contrôle (non traitées et non sensibilisées) est arbitrairement fixée à 1.

In the case of `CCCCCCCCCCCCC1NC(=O)OC1CCCCCCCCCCCC` (centres unmarked) [oxazolidinone B, 4,5-didodécyl-oxazolidin-2-one], in the experiment on cellules dendritiques (0,5% topical on mouse ears, twice daily for 4 days, FITC 1,5%, read 24 h later), the “Inhibition de la migration en %” value is given as 28%. Also, the “inhibition de la migration des CD vers les GL (result in words)” value with cellules dendritiques (mice sensitised with FITC, oxazolidinone B alone) was “inhibe de manière significative”. Further, the “inhibition de la migration des CL induite par le DNSB (result in words)” value with cellules de Langerhans (Example 3) is recorded as “inhibent de manière significative”. Further, in the experiment with cellules de Langerhans (Example 4, tested separately), the “inhibition de la migration des CL sensibilisées (result in words)” value is “inhibent de manière significative”.

Consider `CCCCCCCCCCCCC1COC(=O)N1CCCCCCCCCCCC` (centres unmarked) [oxazolidinone C, 3,4-didodécyl-oxazolidin-2-one], for which the “inhibition de la migration des CL induite par le DNSB (result in words)” value in the experiment on cellules de Langerhans (Example 3) is listed as “inhibent de manière significative”.

For the compound `O=[N+]([O-])c1ccc(S(=O)(=O)O)c([N+](=O)[O-])c1` [DNSB, reference compound], the “stimulation de la migration des CL par rapport aux cellules contrôle” value in the experiment on cellules de Langerhans (Example 3, DNSB 50 µM alone) is reported as “+113%”. The Index de migration in the experiment on cellules de Langerhans (Example 4, cells sensitised with DNSB alone, control cells = 1) was 1,78.

On to `CCCCCCCCCCCCC1COC(=O)N1` (centres unmarked) [oxazolidinone A, 4-dodécyl-oxazolidin-2-one], for which the “inhibition de la migration des CL induite par le DNSB (result in words)” value in the experiment on cellules de Langerhans (Example 3) is “inhibent de manière significative”.
